Results from patent US20100022491A1, “4-HYDROXY-2-OXO-2,3-DIHYDRO-1,3-BENZOTHIAZOL-7YL COMPOUNDS FOR MODULATION OF B2-ADRENORECEPTOR ACTIVITY” (ASTRAZENECA AB, priority 2006, published 2010).
Where a name gives a salt, the structure may show the parent alone.

What was measured:
Adrenergic β2 = biological target: T1, Adrenergic β2 (Homo sapiens, UniProt P07550); assay: Adrenergic β2 mediated cAMP production in H292 cells; format: cell-based; settings: for EC50: read-out: β2 pEC50 (converted); for β2 Int Act: Intrinsic Activity as a fraction relative to the maximum activity determined for formoterol
T1 construct: Adherent H292 cells were removed from tissue culture flasks; endogenous in cells; host or cells: H292 cells
T1 sequence (P07550 whole entry): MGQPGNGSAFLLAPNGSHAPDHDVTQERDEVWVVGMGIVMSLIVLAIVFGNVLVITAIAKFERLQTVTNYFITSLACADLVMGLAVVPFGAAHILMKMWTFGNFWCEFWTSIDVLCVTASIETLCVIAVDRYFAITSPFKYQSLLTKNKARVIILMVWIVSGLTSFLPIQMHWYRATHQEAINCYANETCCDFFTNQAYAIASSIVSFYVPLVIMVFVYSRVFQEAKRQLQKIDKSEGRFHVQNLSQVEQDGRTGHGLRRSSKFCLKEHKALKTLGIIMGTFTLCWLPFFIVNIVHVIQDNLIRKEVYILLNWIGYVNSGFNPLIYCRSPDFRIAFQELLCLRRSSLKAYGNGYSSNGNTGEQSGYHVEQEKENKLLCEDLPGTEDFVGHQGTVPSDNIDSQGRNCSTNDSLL
Method in brief: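 H292 cells pretreated 10 min with rolipram (300 μM final), then exposed to agonist 60 min at room temperature in HEPES-buffered HBSS, 1.6% DMSO final. Lysate cAMP quantified by AlphaScreen against a cAMP standard curve; four-parameter fit gives pEC50 and intrinsic activity relative to formoterol maximum.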

[1] = biological target: T2, recombinant human adrenergic beta 1 receptors (Homo sapiens, UniProt P08588); assay: Adrenergic β1 selectivity binding assay ([125I]-Iodocyanopindolol); settings: inhibition of [125I]-Iodocyanopindolol (0.036 nM) binding; for IC50: read-out: β1 bind p IC50 (converted)
T2 construct: purchased Euroscreen
T2 sequence (P08588 whole entry): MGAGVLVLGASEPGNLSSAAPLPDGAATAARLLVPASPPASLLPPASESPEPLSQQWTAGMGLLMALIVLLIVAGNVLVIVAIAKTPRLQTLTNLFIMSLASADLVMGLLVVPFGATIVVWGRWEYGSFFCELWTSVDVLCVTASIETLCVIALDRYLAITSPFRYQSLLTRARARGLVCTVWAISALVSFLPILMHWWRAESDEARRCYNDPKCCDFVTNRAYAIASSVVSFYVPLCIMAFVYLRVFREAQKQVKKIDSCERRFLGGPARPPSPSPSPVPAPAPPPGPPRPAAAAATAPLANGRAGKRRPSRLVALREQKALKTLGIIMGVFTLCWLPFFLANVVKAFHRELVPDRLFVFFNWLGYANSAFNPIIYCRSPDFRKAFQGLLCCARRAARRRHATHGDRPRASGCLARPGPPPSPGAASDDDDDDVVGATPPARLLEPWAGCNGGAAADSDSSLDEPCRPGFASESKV
Method in brief: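 Recombinant human β1 membranes in HEPES buffer pH 7.4 with 120 mM NaCl were incubated 2 hours at room temperature with 0.036 nM [^125I]-Iodocyanopindolol. Nonspecific binding defined by 10 μM propranolol; bound radioactivity counted after filtration. pIC50 from four-parameter logistic fit.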

[2] = biological target: T3, recombinant human Dopamine Subtype D2s receptors (Homo sapiens, UniProt P14416); assay: Dopamine D2 selectivity binding assay ([3H]-spiperone); settings: inhibition of [3H]-spiperone (0.16 nM) binding; for IC50: read-out: D2 bind pIC50 (converted)
T3 construct: purchased Perkin Elmer
T3 sequence (P14416 1-414 isoform P14416-2): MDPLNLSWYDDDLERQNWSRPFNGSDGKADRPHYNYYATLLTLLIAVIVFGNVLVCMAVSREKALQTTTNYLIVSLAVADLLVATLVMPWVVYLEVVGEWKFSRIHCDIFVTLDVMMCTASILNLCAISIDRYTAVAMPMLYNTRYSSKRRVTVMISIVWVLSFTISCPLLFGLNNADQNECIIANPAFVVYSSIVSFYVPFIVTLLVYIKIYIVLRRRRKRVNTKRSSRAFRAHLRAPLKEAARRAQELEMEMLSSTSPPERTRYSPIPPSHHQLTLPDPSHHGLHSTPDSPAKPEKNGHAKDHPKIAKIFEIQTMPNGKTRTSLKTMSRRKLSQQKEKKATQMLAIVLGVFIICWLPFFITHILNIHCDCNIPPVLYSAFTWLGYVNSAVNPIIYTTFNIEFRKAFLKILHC
Method in brief: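 Recombinant human D2s membranes incubated 2 h at room temperature with 0.16 nM [3H]-spiperone in HEPES/EDTA/NaCl/gelatin buffer, pH 7.4; 10 μM haloperidol defined non-specific binding. Filter-bound radioactivity counted after cold washes. pIC50 from 4-parameter logistic fit of NSB-corrected specific binding.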

[3] = H292 cells, cAMP by AlphaScreen, 60 minutes at room temperature, rolipram 300 μM

Row | SMILES | EC50 (Adrenergic β2; [3]) | β2 Int Act (Adrenergic β2) | IC50 [1] | IC50 [2] | β2 pEC50 (Adrenergic β2; [3]) | β1 bind p IC50 [1] | D2 bind pIC50 [2] | β2 Int Act (Adrenergic β2; dihydrobromide salt)
1 | Cc1ccccc1CCNCCC(=O)N(CCNCCc1ccc(O)c2[nH]c(=O)sc12)C1CCOCC1 [Example 27, N-(2-{[2-(4-Hydroxy-2-oxo-2,3-dihydro-1,3-benzothiazol-7-yl)ethyl]amino}ethyl)-N^3-[2-(2-methylphenyl)ethyl]-N-(tetrahydro-2H-pyran-4-yl)-β-alaninamide bis-trifluoroacetic acid salt] | 0.01 µM | 0.95 | 5.01 µM | 3.16 µM |  |  |  | 
2 | O=C(CCNCCc1cccc(C(F)(F)F)c1)N(CCNCCc1ccc(O)c2[nH]c(=O)sc12)C1CCCCCC1 [Example 82, N^1-Cycloheptyl-N^1-(2-{[2-(4-hydroxy-2-oxo-2,3-dihydro-1,3-benzothiazol-7-yl)ethyl]amino}ethyl)-N^3-{2-[3-(trifluoromethyl)phenyl]ethyl}-β-alaninamide bis-trifluoroacetic acid salt] | 0.0794 µM | 0.86 | 2.51 µM | 0.0501 µM |  |  |  | 
3 | CC(C)(C)CN(CCNCCc1ccc(O)c2[nH]c(=O)sc12)C(=O)CCNCCc1cccc(Cl)c1 [Example 7, N^3-[2-(3-Chlorophenyl)ethyl]-N-(2,2-dimethylpropyl)-N-(2-{[2-(4-hydroxy-2-oxo-2,3-dihydro-1,3-benzothiazol-7-yl)ethyl]amino}ethyl)-β-alaninamide bis-trifluoroacetic acid salt] | 0.00398 µM | 0.68 | 3.16 µM | 0.316 µM |  |  |  | 
4 | O=C(CCNCCc1ccc(F)cc1)N(CCNCCc1ccc(O)c2[nH]c(=O)sc12)CC12CC3CC(CC(C3)C1)C2 [Example 61, N^1-(1-Adamantylmethyl)-N^3-[2-(4-fluorophenyl)ethyl]-N^1-(2-{[2-(4-hydroxy-2-oxo-2,3-dihydro-1,3-benzothiazol-7-yl)ethyl]amino}ethyl)-β-alaninamide bis-trifluoroacetic acid salt] | 0.01 µM | 0.79 | 2.51 µM | 0.794 µM |  |  |  | 
5 | O=C(CCNCCc1ccccc1)N(CCNCCc1ccc(O)c2[nH]c(=O)sc12)C1CCSCC1 [Example 62, N-(2-{[2-(4-Hydroxy-2-oxo-2,3-dihydro-1,3-benzothiazol-7-yl)ethyl]amino}ethyl)-N^3-(2-phenylethyl)-N^1-(tetrahydro-2H-thiopyran-4-yl)-β-alaninamide bis-trifluoroacetic acid salt] | 0.00631 µM | 0.87 | 0.398 µM | 0.398 µM |  |  |  | 
6 | O=C(CCNC[C@H](O)c1ccccc1)N(CCNCCc1ccc(O)c2[nH]c(=O)sc12)C1CCCCC1 [Example 75, N^1-Cyclohexyl-N^1-(2-{[2-(4-hydroxy-2-oxo-2,3-dihydro-1,3-benzothiazol-7-yl)ethyl]amino}ethyl)-N^3-[(2R)-2-hydroxy-2-phenylethyl]-β-alaninamide bis-trifluoroacetic acid salt] | 0.01 µM | 0.91 | 0.631 µM | 0.398 µM |  |  |  | 
7 | O=C(CCNCCc1cc(F)ccc1F)N(CCNCCc1ccc(O)c2[nH]c(=O)sc12)C1CCCCC1 [Example 79, N^1-Cyclohexyl-N^3-[2-(2,5-difluorophenyl)ethyl]-N^1-(2-{[2-(4-hydroxy-2-oxo-2,3-dihydro-1,3-benzothiazol-7-yl)ethyl]amino}ethyl)-β-alaninamide bis-trifluoroacetic acid salt] | 0.00251 µM | 0.84 | 3.16 µM | 0.158 µM |  |  |  | 
8 | O=C(CCNCCc1ccc2c(c1)OCO2)N(CCNCCc1ccc(O)c2[nH]c(=O)sc12)C1CCCCC1 [Example 76, N^3-[2-(1,3-Benzodioxol-5-yl)ethyl]-N^1-cyclohexyl-N^1-(2-{[2-(4-hydroxy-2-oxo-2,3-dihydro-1,3-benzothiazol-7-yl)ethyl]amino}ethyl)-β-alaninamide bis-trifluoroacetic acid salt] | 0.00631 µM | 0.68 | 3.98 µM | 0.2 µM |  |  |  | 
9 | CC(C)(CNCCC(=O)N(CCNCCc1ccc(O)c2[nH]c(=O)sc12)C1CCCC1)c1ccccc1 [Example 32, N-cyclopentyl-N-(2-{[2-(4-hydroxy-2-oxo-2,3-dihydro-1,3-benzothiazol-7-yl)ethyl]amino}ethyl)-N^3-(2-methyl-2-phenylpropyl)-β-alaninamide bis-trifluoroacetic acid salt] | 0.0794 µM | 0.67 | 7.94 µM | 0.398 µM |  |  |  | 
10 | O=C(CCNCCc1cccc(OC(F)F)c1)N(CCNCCc1ccc(O)c2[nH]c(=O)sc12)C1CCCCCC1 [Example 54, N-Cycloheptyl-N^3-{2-[3-(difluoromethoxy)phenyl]ethyl}-N^1-(2-{[2-(4-hydroxy-2-oxo-2,3-dihydro-1,3-benzothiazol-7-yl)ethyl]amino}ethyl)-β-alaninamide bis-trifluoroacetic acid salt] | 0.01 µM | 0.69 | 2.51 µM | 0.0501 µM |  |  |  | 
11 | CC(C)(C)CN(CCNCCc1ccc(O)c2[nH]c(=O)sc12)C(=O)CCNCCc1ccc(Cl)cc1 [Example 8, N^3-[2-(4-Chlorophenyl)ethyl]-N-(2,2-dimethylpropyl)-N-(2-{[2-(4-hydroxy-2-oxo-2,3-dihydro-1,3-benzothiazol-7-yl)ethyl]amino}ethyl)-β-alaninamide bis-trifluoroacetic acid salt] | 0.01 µM | 0.73 | 5.01 µM | 0.398 µM |  |  |  | 
12 | O=C(CCNCCc1cccc(F)c1)N(CCNCCc1ccc(O)c2[nH]c(=O)sc12)C1CCCCCC1 [Example 95, N-Cycloheptyl-N^3-[2-(3-fluorophenyl)ethyl]-N-(2-{[2-(4-hydroxy-2-oxo-2,3-dihydro-1,3-benzothiazol-7-yl)ethyl]amino}ethyl)-β-alaninamide dihydromide salt] |  |  |  |  | 8.6 | 5.5 | 6.7 | 
13 | O=C(CCNCCc1ccc(Cl)cc1)N(CCNCCc1ccc(O)c2[nH]c(=O)sc12)C1CCCCCC1 [Example 51, N^3-[2-(4-Chlorophenyl)ethyl]-N^1-cycloheptyl-N^1-(2-{[2-(4-hydroxy-2-oxo-2,3-dihydro-1,3-benzothiazol-7-yl)ethyl]amino}ethyl)-β-alaninamide bis-trifluoroacetic acid salt] | 0.00501 µM | 0.59 | 2.51 µM | 0.0251 µM |  |  |  | 
14 | O=C(CCNCCc1ccccc1Cl)N(CCNCCc1ccc(O)c2[nH]c(=O)sc12)C1CCC(F)(F)CC1 [Example 46, N^3-[2-(2-Chlorophenyl)ethyl]-N^1-(4,4-difluorocyclohexyl)-N^1-(2-{[2-(4-hydroxy-2-oxo-2,3-dihydro-1,3-benzothiazol-7-yl)ethyl]amino}ethyl)-β-alaninamide bis-trifluoroacetic acid salt] | 0.00316 µM | 0.78 | 1.58 µM | 0.0398 µM |  |  |  | 
15 | CC(C)(C)CN(CCNCCc1ccc(O)c2[nH]c(=O)sc12)C(=O)CCNCCc1ccccc1 [Example 6, N-(2,2-Dimethylpropyl)-N-(2-{[2-(4-hydroxy-2-oxo-2,3-dihydro-1,3-benzothiazol-7-yl)ethyl]amino}ethyl)-N^3-(2-phenylethyl)-β-alaninamide bis-trifluoroacetic acid salt] | 0.002 µM | 0.89 | 0.794 µM | 0.2 µM |  |  |  | 
16 | O=C(CCNCCc1ccccc1)N(CCNCCc1ccc(O)c2[nH]c(=O)sc12)C1CCCCCC1 [Example 98, N-Cycloheptyl-N-(2-{[2-(4-hydroxy-2-oxo-2,3-dihydro-1,3-benzothiazol-7-yl)ethyl]amino}ethyl)-N^3-(2-phenylethyl)-β-alaninamide dihydrobromide salt] | 0.00158 µM |  | 2 µM | 0.158 µM |  |  |  | 0.8
17 | CC(CN(C(=O)CCNCCc1cccc(F)c1)C1CCCCCC1)NCCc1ccc(O)c2[nH]c(=O)sc12 (stereo not drawn) [Example 104, N-Cycloheptyl-N^3-[2-(3-fluorophenyl)ethyl]-N-(2-{[2-(4-hydroxy-2-oxo-2,3-dihydro-1,3-benzothiazol-7-yl)ethyl]amino}propyl)-β-alaninamide bis-trifluoroacetic acid salt] | 0.00501 µM | 0.81 | 0.794 µM | 0.0631 µM |  |  |  | 
18 | O=C(CCNCCc1cccs1)N(CCNCCc1ccc(O)c2[nH]c(=O)sc12)C1CCCCCC1 [Example 52, N^1-Cycloheptyl-N^1-(2-{[2-(4-hydroxy-2-oxo-2,3-dihydro-1,3-benzothiazol-7-yl)ethyl]amino}ethyl)-N^3-[2-(2-thienyl)ethyl]-β-alaninamide bis-trifluoroacetic acid salt] | 0.00316 µM | 0.92 | 1.58 µM | 0.0398 µM |  |  |  | 
